Several values for one entry are separate records, joined by “and”; a condition that tells them apart may be missing. Identical values can stand only once.
Assays:
plasma Abeta42 = assay: Phase 2 trial in early AD APOE4 carriers: plasma Abeta42; format: in vivo, human; settings: 52 weeks; 265 mg BID oral; p=0.005
Method: (§1) Evaluation of disease modifying effects from phase 2 trial of ALZ-801 (valiltramiprosate) in subjects with early Alzheimer's disease were conducted. The study enrolled 84 patients, with early AD, who carry the APOE4/4 or APOE3/4 genotype and have an MMSE score ranging from 22 to 30 (CDR-G 0.5 or 1). Each patient received 265 mg ALZ-801 twice daily. The average MMSE score of the subjects was 26 (mean age 69 years, 52% female). Subjects were either amyloid PET positive or A+/T+ on CSF assays. CSF criteria were: Ratio of Aβ42/40×10≤0.61, and p-tau181≥61 pg/ml. CSF was evaluated at 52 weeks, and plasma biomarkers at every visit.
(§2) All fluid biomarker analyses were performed at the Neurochemistry Laboratory of Dr. Blennow (Molndal, Sweden), and were blinded to subject's demographics or genotype. CSF biomarker assays were analyzed using Lumipulse (Fujirebio) and plasma assays utilized Simoa assays. Cognitive tests include the Rey Auditory Verbal Learning Test (RAVLT: immediate, delayed and recognition memory) and Digit Symbol Substitution Tests (DSST), and a composite Z-score is calculated (3-item RAVLT+DSST). Change from baseline (CBL) analyses were performed on the mITT population and included all observed data, using paired t-tests and 2-sided p-values. The primary biomarker outcome was p-tau181. […]

plasma p-tau181 = assay: Phase 2 trial in early AD APOE4 carriers: plasma p-tau181 (Simoa); format: in vivo, human; settings: 265 mg BID oral, APOE4/4 or APOE3/4, change from baseline
Method: as §1
(§3) All fluid biomarker analyses were performed at the Neurochemistry Laboratory of Dr. Blennow (Molndal, Sweden), and were blinded to subject's demographics or genotype. CSF biomarker assays were analyzed using Lumipulse (Fujirebio) and plasma assays utilized Simoa assays. Cognitive tests include the Rey Auditory Verbal Learning Test (RAVLT: immediate, delayed and recognition memory) and Digit Symbol Substitution Tests (DSST), and a composite Z-score is calculated (3-item RAVLT+DSST). Change from baseline (CBL) analyses were performed on the mITT population and included all observed data, using paired t-tests and 2-sided p-values. The primary biomarker outcome was p-tau181.
(§4) Of the 84 APOE4 carrier that were enrolled and received ALZ-801, 80 and 75 subjects completed 26 and 52 weeks respectively. […] This is much greater than the annualized ˜12% reduction in plasma p-tauisi observed in the recent human clinical trials of the anti-amyloid antibody lecanemab (van Dyck, C H et al., N Engl J Med 2023; 388: 9-21, DOI: 10.1056/NEJMoa2212948).

[1] = tested on: plasma p-tau181/Abeta42 ratio; assay: Phase 2 trial in early AD APOE4 carriers: plasma p-tau181/Abeta42 ratio; format: in vivo, human; settings: 265 mg BID oral
Method: as §1, §3, §4

[2] = Phase 2 trial in early AD APOE4 carriers: brain volumes (hippocampal, ventricular; MRI) vs matched ADNI cohort; format: in vivo, human
Method: as §1
Unlike anti-amyloid antibodies, such as Lecanemab, ALZ-801 treatment over 52 weeks also appeared to show an ˜15% reduction in ventricular volume expansion as measured by MRI (p=0.08).

plasma Abeta40 = assay: Phase 2 trial in early AD APOE4 carriers: plasma Abeta40; format: in vivo, human; settings: 52 weeks; 265 mg BID oral; p=0.002
Method: as §1, §2

[3] = cited from earlier work

Row | Molecule | reduction in plasma Abeta42 (plasma Abeta42) [%] | reduction in plasma p-tau181 (plasma p-tau181; 13 weeks, p=0.014) [%] | reduction in plasma p-tau181 (plasma p-tau181; 26 weeks, p=0.014) [%] | reduction in plasma p-tau181 (plasma p-tau181; 52 weeks, p=0.016) [%] | reduction in plasma p-tau181/Abeta42 ratio ([1]; 13 weeks, p=0.011) [%] | reduction in plasma p-tau181/Abeta42 ratio ([1]; 26 weeks, p=0.011) [%] | reduction in plasma p-tau181/Abeta42 ratio ([1]; 52 weeks, p=0.032) | annualized reduction in atrophy of hippocampal volume ([2]; compared to a well-matched ADNI cohort, p=0.05) [%] | reduction in ventricular volume expansion ([2]; over 52 weeks, measured by MRI, p=0.08) [%] | reduction in plasma Abeta40 (plasma Abeta40) [%] | annualized reduction in hippocampal volume atrophy, result in words ([3]; Van Dyck, 2022) | annualized reduction in plasma p-tau181 ([3]; recent human clinical trials of lecanemab, van Dyck et al. N Engl J Med 2023) [%]
1 | CC(C)[C@H](N)C(=O)NCCCS(=O)(=O)O [ALZ-801, valyl-3-amino-1-propanesulfonic acid] | 5 | 18 | 29 | 41 | 21 | 30 | 37% and 31% | ~20 | ~15 | 5 | – | –
2 | lecanemab: anti-amyloid antibody (antibody, chains of the INN, looked up, V domains shown) VH: EVQLVESGGGLVQPGGSLRLSCSASGFTFSSFGMHWVRQAPGKGLEWVAYISSGSSTIYYGDTVKGRFTISRDNAKNSLFLQMSSLRAEDTAVYYCAREGGYYYGRSYYTMDYWGQGTTVTVSS VL: DVVMTQSPLSLPVTPGAPASISCRSSQSIVHSNGNTYLEWYLQKPGQSPKLLIYKVSNRFSGVPDRFSGSGSGTDFTLRISRVEAEDVGIYYCFQGSHVPPTFGPGTKLEIK | – | – | – | – | – | – | – | – | – | – | did not demonstrate any significant annualized reduction | ~12

Source: patent US20250127734A1, “ALZ-801 FOR USE IN TREATING A COVID-19 ASSOCIATED NEUROLOGICAL SYMPTOM” (Alzheon, Inc., priority 2022, published 2025)
